US20230096601A1, “BORTEZOMIB COMPOSITIONS” (MAIA Pharmaceuticals, Inc., priority 2021, published 2023)
In brackets after ≈: the same amount, converted by molar mass.

How the values were obtained:
[1] = Formulation trials with low concentrations of benzyl alcohol / DMSO in water: visual dissolution and physical stability; assay type: physicochemical; conditions: benzyl alcohol (2% v/v), DMSO (5% v/v) or combination added to bortezomib, then water; mixing >3 hours
Procedure: Initial formulation experiments with low concentrations of various non-aqueous solvents were conducted targeting a bortezomib concentration of 2.5 mg/mL. Attempts to solubilize bortezomib were conducted using low concentrations of benzyl alcohol (2% v/v), or dimethyl sulfoxide (5% v/v), or a combination of these solvents. […] For these formulations, the non-aqueous solvent was added to bortezomib to dissolve it, followed by addition of water to the bortezomib-solvent mixture.
Various concentrations of DMSO were explored as the non-aqueous component of the formulation (2% v/v to 5% v/v in water). Bortezomib was first completely dissolved in the batch volume of DMSO to form a concentrated “premix” solution prior to making up the batch to the target concentration (2.5 mg/mL) with water. This was done to facilitate the subsequent dissolution of bortezomib in the aqueous component.

[2] = Equilibrium solubility by HPLC, bortezomib added directly to solvent system; assay type: physicochemical; conditions: buffered aqueous solutions, aqueous buffer, thermodynamic from solid; pH range of 4 to 7
Procedure: Because pH appeared to influence chemical stability, sodium acetate or sodium phosphate were included in these matrixes as buffers, and the effect of pH on solubility was also assessed.
The components were mixed (by shaking the glass container), and the mixture was observed. […] The suspension was allowed to equilibrate for 24 hours at room temperature while being protected from light. After the incubation, the solution phase was removed from the container into a clean vial by filtration through a 0.45 micron syringe filter, and the filtrate was assayed for bortezomib content using an HPLC procedure, and a bortezomib standard.

[3] = Solubility by HPLC, bortezomib premixed with nonaqueous solvent before addition to aqueous component; assay type: physicochemical; conditions: aqueous with cosolvent or surfactant or cyclodextrin, kinetic from dmso stock; premix in non-aqueous solvent, aqueous system with 25 mg/mL mannitol
Procedure: This example was carried out to determine the solubility of bortezomib in particular solvents and solvent systems when the bortezomib is first dissolved in (the batch quantity) of a non-aqueous solvent to form a concentrated solution (“premix”), prior to adding the premix to the aqueous component(s). A bortezomib sample (between 10 and 50 mg) was placed in a suitable glass container and added to a defined volume of a nonaqueous solvent system (if used) as defined below in Table 4, to create a concentrated premix. The premix was subsequently added to enough buffered aqueous solvent to make a final volume of 5 mL, as defined below in Table 4.
The resulting formulation was allowed to equilibrate for 24 hours at room temperature, protected from light. Solubility was determined by filtration through a 0.45 micron filter, and assay of the filtrate for bortezomib content using an HPLC procedure, and a bortezomib standard. One mL aliquots of the filtrate (saturated solution) were subjected to three freeze-thaw cycles of 24 hours at −20° C. and 24 hours at 25° C. each, with visual examination after each cycle. Absence of precipitation after the three cycles was used as an index of physical stability of the formulation upon long-term storage.

[4] = Accelerated / room temperature stability testing at 25° C./60% RH, HPLC assay and impurities (percent of nominal bortezomib concentration); assay type: physicochemical
Procedure: The compositions described herein are storage stable aqueous liquid ready-to-use compositions. The degradation of the active ingredient, as well as the formation of various impurities is controlled by the composition to a minimal level. Stability testing was performed at the long-term stability condition (2-8° C.) as well as the accelerated stability condition (25±2° C./60±5% RH) for refrigerated products. At each time point, the bortezomib content (assay) and the impurity profile was determined using an HPLC procedure, and a bortezomib reference standard. The HPLC method utilizes a reverse phase column with an aqueous formic acid/acetonitrile and aqueous formic acid/methanol mobile phase gradient and UV/PDA detector at a wavelength of about 270 nm.
The effect of pH on bortezomib formulations using a low concentration of DMSO in water (4.5% v/v DMSO for the 2.5 mg/mL strength and 1% v/v DMSO for the 1 mg/mL strength) was then assessed. In each case, the bortezomib was first fully dissolved in the batch quantity of DMSO to form a concentrated premix solution, which was then added to water, and the pH adjusted with sodium hydroxide and/or hydrochloric acid to pH ranging from 4 to 8.5. […] Because oxidative degradation is a significant degradation pathway for bortezomib, filled vials were overlayed with nitrogen. These batches were placed on stability at accelerated (25° C.) and long-term storage conditions (2-8° C.). […] Although the 2.5 mg/mL formulations were not physically stable at 25° C., chemical stability, based on analysis after 2 months at 25° C., stability was poor at pH 4 and pH 8.5 for both strengths, with good stability being observed at pH 5.5 for the 2.5 mg/mL strength and pH 5.5 and 7 for the 1 mg/mL strength.
The preparation of the concentrated bortezomib premix is performed. The batch quantity of bortezomib is added to a suitable glass container. The batch quantity of the non-aqueous solvent is then added to the bortezomib, and mixed until the bortezomib is completely dissolved. The initial aqueous component is separately prepared by dissolving the other excipients such as buffer, optionally a solubilizer and/or stabilizer, or a tonicity adjuster, in water for injection, which optionally has been degassed by sparging nitrogen through it and adjusting to the desired pH using appropriate pH adjusting agent, if needed. The aqueous component is typically prepared at about double the corresponding concentration(s) in the final formulation; this was typically accomplished by dissolving the excipients in approximately half the batch volume of water. The bortezomib premix is then added to the (concentrated) aqueous component, and mixed. Water is then added to make up to about 80-90% of the batch volume and a final pH adjustment is performed to the target pH using appropriate pH adjusting agent, if needed. After final pH adjustment, the batch is made up to the target batch volume. The batch is then sterile filtered using a 0.2 micron filter, filled into (2-mL, or 3-mL, or 5-mL) USP Type I, optionally amber, glass vials, stoppered with (13-mm or 20-mm) fluoropolymer-coated chlorobutyl rubber stoppers, and sealed with (13-mm or 20-mm) aluminum caps. The fill volume used is typically 3.5 mL for the 1 mg/mL formulations or 1.4 mL for the 2.5 mg/mL formulations (to contain 3.5 mg bortezomib per vial). Because bortezomib is known to be oxidation and light sensitive, compounding and filling is typically carried out in a glove box equilibrated with nitrogen at various residual oxygen levels (typically less than 5%). Light exposure is minimized.
The stability testing under accelerated conditions (25° C. and 60% relative humidity for at least 6 months) of these formulations is presented in Table 6.

[5] = cited from earlier work
physchem = conditions: thermodynamic from solid
Procedure: The solubility of bortezomib in select non-aqueous solvents was determined to understand if any of these solvents may be useful (as a co-solvent with water) at low concentrations in the final formulation.
Approximately 25 mg of bortezomib was added to a suitable container. An initial volume of 0.5 mL of the non-aqueous solvent was added and the mixture stirred for 5 minutes. The appearance of the solution was recorded. […] If the bortezomib was not fully dissolved, additional volume of solvents were added in 0.25 mL increments with mixing for 5 minutes after each addition, and recording the appearance of the solution, until the bortezomib was fully dissolved, up to a total volume of 10 mL.

- dissolution at target 2.5 mg/mL [1]: precipitated after addition of water
- solubility at 24 h [2]: < 500 µg/mL
- solubility at 24 h [3]: > 4000 µg/mL
- Total Impurities after 2 months at 25° C. (%) ([4]; 1 mg/mL bortezomib, 1% (v/v) DMSO in water, pH 4): 7.83%
- Total Impurities after 2 months at 25° C. (%) ([4]; 1 mg/mL bortezomib, 1% (v/v) DMSO in water, pH 5.5): 0.52%
- Total Impurities after 2 months at 25° C. (%) ([4]; 1 mg/mL bortezomib, 1% (v/v) DMSO in water, pH 7): 1.18%
- Total Impurities after 2 months at 25° C. (%) ([4]; 1 mg/mL bortezomib, 1% (v/v) DMSO in water, pH 8.5): 12.48%
- Total Impurities after 2 months at 25° C. (%) ([4]; 2.5 mg/mL bortezomib, […] (v/v) DMSO in water, pH 4): 13.71%
- Total Impurities after 2 months at 25° C. (%) ([4]; 2.5 mg/mL bortezomib, […] (v/v) DMSO in water, pH 5.5): 1.07%
- Total Impurities after 2 months at 25° C. (%) ([4]; 2.5 mg/mL bortezomib, […] (v/v) DMSO in water, pH 7): 5.91%
- Total Impurities after 2 months at 25° C. (%) ([4]; 2.5 mg/mL bortezomib, […] (v/v) DMSO in water, pH 8.5): 31.59%
- solubility at 5 min (physchem; N-methyl pyrrolidone (NMP), organic solvent or mixture): > 25000 µg/mL
- solubility at 5 min (physchem; benzyl alcohol, organic solvent or mixture): > 50000 µg/mL
- solubility at 5 min (physchem; dimethyl sulfoxide (DMSO), organic solvent or mixture): > 50000 µg/mL
- solubility at 5 min (physchem; ethanol, organic solvent or mixture): ~4500 µg/mL (≈ 11.7 mM)
- solubility at 5 min (physchem; glycerol, organic solvent or mixture): < 2500 µg/mL
- solubility at 5 min (physchem; polyethylene glycol 400, organic solvent or mixture): < 2500 µg/mL
- solubility at 5 min (physchem; propylene glycol, organic solvent or mixture): ~3600 µg/mL (≈ 9.37 mM)
Compound: CC(C)C[C@H](NC(=O)[C@H](Cc1ccccc1)NC(=O)c1cnccn1)B(O)O [Bortezomib, [(1R)-3-methyl-1-[[(2S)-1-oxo-3-phenyl-2-[(pyrazinylcarbonyl)amino]propyl]amino]butyl] boronic acid]
- solubility of bortezomib in water or buffered aqueous solutions reported by the suppliers [5]: < 100 µg/mL
